In data set [1] the test system is norepinephrine uptake. Conditions: background statement; cited from earlier work.
In data set [2] the target is T1, butyrylcholinesterase (Serum AChE) (Homo sapiens, UniProt P06276).
T1 construct: A vial of lyophilized human serum; purchased Biodynamics, Houston, Tex; (Precilip); host or cells: lyophilized human serum, reconstituted in water; enzyme not purified
Kind of data set: In Vitro Inhibition of Butyrylcholinesterase Activity in Human Serum. The class given is biochemical. From the text:
(§1) Cholinesterases are found throughout the body, both in the brain and in serum. However, only brain acetylcholinesterase (AChE) distribution is correlated with central cholinergic innervation. […] We have determined in vitro inhibition of acetylcholinesterase activity in rat striatum and in vitro inhibition of butrylcholinesterase activity in human serum according to the methods described below.
This assay can be used in conjunction with the acetylcholinesterase assay to determine the enzyme selectivity of various chloinesterase inhibitors.
Butyrylcholinesterase (BChE), which is sometimes called pseudocholinesterase, preferentially hydrolyzes butyrylcholine. This enzyme is found in the highest amounts in serum, but its physiological role is not known.
(§2) (a) 9.9 mg 5,5-dithiobisnitrobenzoic acid (DTNB) (0.25 mM)
(b) 113 mg s-butyrylthiochloine chloride (5 mM)
(§3) (c) q.s. to 100 ml with 0.05M phosphate buffer, pH 7.2 (reagent 1)
A vial of lyophilized human serum (Precilip, Biodynamics, Houston, Tex. is reconstituted in 3 ml of distilled water. A 10 microliter aliquot of this suspension is added to 90 microliter of the vehicle or various concentrations of the test drug and preincubated for 10 minutes at room temperature.
Substantially the same procedure is used as described above in Section C of the Procedure used for determining the inhibition of acetylcholinsterase activity.

Data set [3] has as its system tetrabenazine-induced ptosis. Kind of data set: Prevention of Tetrabenazine-Induced Ptosis In Mice (TBZ). In kind it is in vivo. From the text: Tetrabenazine (TBZ) induces behavioral depression with concomitant ptosis in mice similar to reserpine. Antidepressant compounds, both monoamineoxidase inhibitors and tricyclics, are known to prevent or antagonize these effects and the degree of antagonism correlates with clinical efficacy. The prevention of TBZ-induced ptosis in mice is used as a preliminary screen for possible antidepressant activity. The method used in this invention is as follows:
Male mice weighing 20 to 30 grams are used in test groups of five subjects. All compounds are dissolved or suspended with a suitable surfactant in distilled water and administered in volumes of 10 ml/kg of body weight. TBZ solution is made from the methanesulfonate salt and the concentration is adjusted to enable administration of 60 mg/kg of base by intraperitoneal (i.p.) injection.
The pretreatment time is measured from the time of dosing to observation. Therefore, when a […] pretreat is utilized, drug and TBZ are given simultaneously. A control group receives solvent and TBZ at intervals identical to drug group. For a primary screen, the drug is administered i.p. and a group size of five is utilized. Eight animals/group are used for a dose range.
Thirty minutes after TBZ, the subjects are placed in individual plastic containers (10.5×8×6 inches) in the presence of white noise and one minute after the transfer, they are scored for ptosis on the following scale: Eyes closed=4, eyes 3/4 closed=3, eyes 1/2 closed=2, eyes 1/4 closed=1, eyes open=0. The total score for each group of five in a primary screen will, therefore, be from 0 to 20 and these scores are used as indications of drug activity.
The vehicle control group score is used as a determinant of the validity of each test. If the control score is less than 17, the results are discarded and the test repeated. The calculation of percent inhibition of ptosis is: [formula]
Linear regression analysis is used to estimate ED50 values and 95% confidence intervals.

The nature of data set [4]: Acute toxicity (LD50). In kind it is in vivo. Conditions: death within 24 hours; for LD50: i.p., 1440 min; for LD50 at 24 h: in vivo, ip. The protocol: LD50 is determined by the dose (mg/kg) at which 50% of the test animals die within 24 hours. In many cases this dose is an approximation.
The subject of data set [5] is scopolamine-induced memory deficit. As to the kind of experiment: Dark Avoidance Assay (scopolamine induced memory deficit reversal). The class given is in vivo, mice. Conditions: Mus musculus, sc, 24 h, read-out: % of Animals with Scopolamine Induced Memory Deficit Reversal. The protocol: In this assay mice are tested for their ability to remember an unpleasant stimulus for a period of 24 hours. A mouse is placed in a chamber that contains a dark compartment; a strong incandescent light drives it to the dark compartment, where an electric shock is administered through metal plates on the floor. The animal is removed from the testing apparatus and tested again, 24 hours later, for the ability to remember the electric shock.
If scopolamine, an anticholinergic that is known to cause memory impairment, is administered before an animal's initial exposure to the test chamber, the animal re-enters the dark compartment shortly after being placed in the test chamber 24 hours later. This effect of scopolamine is blocked by an active test compound, resulting in a greater interval before re-entry into the dark compartment.
The results for an active compound are expressed as the percent of a group of animals in which the effect of scopolamine is blocked, as manifested by an increased interval between being placed in the test chamber and re-entering the dark compartment.

The target in data set [6] is T2, acetylcholinesterase (Brain AChE) (Rattus norvegicus, UniProt P37136).
T2 construct: corpora striata dissected free, weighed and homogenized in 19 volumes; from tissue; host or cells: corpora striata of male Wistar rats, crude homogenate in phosphate buffer
T2 sequence (P37136 32-614): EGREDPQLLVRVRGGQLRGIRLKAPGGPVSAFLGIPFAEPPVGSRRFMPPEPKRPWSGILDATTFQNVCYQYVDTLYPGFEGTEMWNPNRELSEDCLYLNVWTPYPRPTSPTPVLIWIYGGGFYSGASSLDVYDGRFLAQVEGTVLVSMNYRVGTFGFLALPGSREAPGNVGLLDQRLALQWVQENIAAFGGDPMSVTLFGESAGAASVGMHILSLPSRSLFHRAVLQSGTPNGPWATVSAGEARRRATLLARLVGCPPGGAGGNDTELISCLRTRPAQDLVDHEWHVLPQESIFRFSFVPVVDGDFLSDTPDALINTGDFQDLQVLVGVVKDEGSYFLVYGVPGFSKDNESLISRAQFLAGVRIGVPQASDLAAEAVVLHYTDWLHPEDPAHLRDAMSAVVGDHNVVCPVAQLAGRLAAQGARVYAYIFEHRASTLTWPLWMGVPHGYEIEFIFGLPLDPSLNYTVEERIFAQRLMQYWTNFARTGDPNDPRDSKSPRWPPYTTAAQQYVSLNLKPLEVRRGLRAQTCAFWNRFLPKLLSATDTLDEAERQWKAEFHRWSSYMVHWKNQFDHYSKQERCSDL
As to the kind of experiment: In Vitro Inhibition of Acetylcholinesterase Activity in Rat Striatum. In kind it is biochemical.
From the text: as §1
The method described below was used in this invention for assaying cholinesterase activity. This is a modification of the method of Ellman et al., Biochem. Pharmacol. 7, 98 (1961).
1. 0.05M Phosphate buffer, pH 7.2
as §2
(b) 99 mg s-acetylthiocholine chloride (5 mM)
as §3
Male Wistar rats are decapitated, brains rapidly removed, corpora striata dissected free, weighed and homogenized in 19 volumes (approximately 7 mg protein/ml) of 0.05M phosphate buffer, pH 7.2 using a Potter-Elvehjem homogenizer. A 50 microliter aliquot of the homogenate is added to 50 microliter vehicle of various concentrations of the test drug and preincubated for 10 minutes at room temperature.
1. For routine IC50 determinations the Abbott Bichromatic Analyzer, ABA-100, is used to determine acetylcholinesterase activity.
Incubation temperature: 30° C.
Following the 10 minute preincubation of the tissue (enzyme) with the inhibitor, the samples are mixed with the substrate chromogen buffer by the ABA-100. Using the indicated instrument settings the ABA-100 automatically reads the color reaction and prints out the results in enzyme units after 15 minutes.
2. The enzyme activity can also be measured with Gilford 250 spectrophotometer. This method is used for more accurate kinetic measurments.
Reagents are added to the reference and sample side of a split curvette as follows.
The uninhibited activity of the enzyme (tissue homogenate) is first determined. Test drugs are made up in a suitable solvent and added in suitable dilutions to the buffer vehicle. The reaction rate is determined by the slope of the recorded absorbance change. The actual rate (moles/liter/min) can be calculated as described in the following formula
rate(moles/liter/min)=slope/(1.36×10^4).

The test system of data set [7] is norepinephrine uptake. The class given is biochemical. Particulars: rat brain synaptosomes, 50 nM 3H-NE, 37° C., 5 min; read-out: Reuptake Inhibition of neurotransmitters, Norepinephrine.
Data set [8] has as its system yohimbine toxicity. Kind of data set: animal or person. The class given is in vivo, mice. Particulars: for ED50: Mus musculus, po, 18 h, read-out: YTP ED50. The protocol: The potentiation of yohimbine toxicity is considered an additional test for screening antidepressant drugs. The method used in this invention is as follows:
Male mice weighing 20 to 30 grams are used. They are housed under standard laboratory conditions with free access to food and water. Compounds are dissolved in distilled water and a suitable surfactant is added in case of poor solubility. Yohimbine hydrochloride is dissolved in distilled water as well. Both compound and yohimbine are administered in a volume of […].
Compounds and vehicle are administered orally 60 minutes prior to a sublethal dose (30 mg/kg s.c.) of yohimbine hydrochloride which alone causes death in about […] of mice (4 out of 400). Ten mice per group are then placed in plastic cages (26×10×16 cm) with food and water available ad libitum. Mortality rate is assessed 18 hours postdosing. ED50 is defined as dose of drug causing death in 5/10 mice and is calculated by probit analysis.

For data set [9], the target named is T1, butyrylcholinesterase (Serum AChE). Conditions: background statement; cited from earlier work.

The values below come from patent US5187165A, “Memory enhancing and analgesic 1,2,3a,8,8a-hexahydro-3a,8(and 1,3a,8)-di(and tri)methylpyrrolo[2,3-b]indoles” (priority 1988, dated 1993).

Structures are written as SMILES. Where a name gives a salt, the structure may show the parent alone. Some results are limits rather than exact numbers.

T1 sequence (P06276 29-602): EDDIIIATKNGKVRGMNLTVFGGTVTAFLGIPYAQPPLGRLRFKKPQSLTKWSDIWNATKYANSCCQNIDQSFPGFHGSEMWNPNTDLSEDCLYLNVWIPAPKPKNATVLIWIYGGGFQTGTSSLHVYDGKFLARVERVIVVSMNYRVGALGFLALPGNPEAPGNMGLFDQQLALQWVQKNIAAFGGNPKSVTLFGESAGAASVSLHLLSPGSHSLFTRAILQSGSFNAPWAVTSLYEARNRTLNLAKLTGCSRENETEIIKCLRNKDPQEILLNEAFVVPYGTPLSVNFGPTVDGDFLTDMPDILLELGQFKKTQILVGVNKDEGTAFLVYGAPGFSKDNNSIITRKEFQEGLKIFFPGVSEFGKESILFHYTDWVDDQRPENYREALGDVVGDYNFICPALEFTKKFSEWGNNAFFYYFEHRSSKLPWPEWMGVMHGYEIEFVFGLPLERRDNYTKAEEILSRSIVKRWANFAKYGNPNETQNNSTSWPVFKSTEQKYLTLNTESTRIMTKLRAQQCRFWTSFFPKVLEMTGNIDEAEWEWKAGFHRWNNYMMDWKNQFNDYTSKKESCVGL

As to `COC(=O)[C@H]1[C@@H](OC(=O)c2ccccc2)C[C@@H]2CC[C@H]1N2C` [cocaine], the “inhibition of NE uptake” value in data set [1] is recorded as “potently inhibited”.

A word on the LD50: it is the dose expected to kill half of the subjects tested. `CN1CC[C@@]2(C)c3cc(OC(=O)NC4CCCCC4)ccc3N(C)[C@@H]12` [(3aS-cis)-1,2,3,3a,8,8a-Hexahydro-1,3a,8-trimethylpyrrolo[2,3-b]indol-5-ol,cyclohexyl carbamate ester] gave an IC50 in data set [2] greater than 1 mM. In addition, in [3] (1.25 mg/kg), the “% Inhibition, TBZ” value was determined as 20%. Moreover, in data set [4], the median lethal dose (LD50) was less than 10 mg/kg and the 50% lethal dose (LD50) at 24 h is greater than 5 mg/kg. Moreover, in data set [5], the responders at 0.16 mg/kg was determined as 31%. The molecule further registered an IC50 in [6] of 900 nM.

As a reminder, the ED50 is the dose that gives a 50% effect, or the effect in half of the subjects. With `C[C@H](NC(=O)Oc1ccc2c(c1)[C@]1(C)CCN(C)[C@@H]1N2C)c1ccccc1` (relative stereo) [(3aS-cis)-1,2,3,3a,8,8a-Hexahydro-1,3a,8-trimethylpyrrolo[2,3-b]indol-5-ol,[(S*)-(1-phenyl)ethyl] carbamate ester], the IC50 is greater than 1 mM in data set [2], 2200 nM in data set [7] and 3100 nM in [6]. Also, the “% Inhibition, TBZ” value in [3] (20 mg/kg) was 35%. For the same molecule, the ED50 in data set [8] was found to be 30 mg/kg. Moreover, the LD50 in data set [4] is listed as less than 80 mg/kg. Moreover, in data set [4], the median lethal dose (LD50) at 24 h is greater than 40 mg/kg. The responders at 0.31 mg/kg in data set [5] was 20%.

With `CCN(CC)C(C)CN1c2ccccc2Sc2ccccc21` (stereo not shown) [Ethopropazine], the “selectivity of inhibition of butyrylcholinesterase” value in [9] is given as “selective inhibitors of butyrylcholinesterase”.

For `C[C@@H](NC(=O)Oc1ccc2c(c1)[C@]1(C)CCN(C)[C@@H]1N2C)c1ccccc1` (relative stereo) [(3aS-cis)-1,2,3,3a,8,8a-Hexahydro-1,3a,8-trimethylpyrrolo[2,3-b]indol-5-ol,[(R*)-(1-phenyl)ethyl] carbamate ester], the IC50 in data set [2] worked out at 0.0009 mM; in data set [7], 12000 nM; in [6], 1200 nM. Further, the “% Inhibition, TBZ” value in [3] (20 mg/kg) is given as 50%. Besides, in data set [8], the ED50 stood at 16.1 mg/kg. The 50% lethal dose (LD50) at 24 h in [4] is roughly 40 mg/kg. Also, in data set [5], the responders at 1.25 mg/kg was 67%.

As for `CCC1CCC(NC(=O)Oc2ccc3c(c2)[C@]2(C)CCN(C)[C@@H]2N3C)CC1` (stereo partly drawn) [(3aS-cis)-1,2,3,3a,8,8a-Hexahydro-1,3a,8-trimethylpyrrolo[2,3-b]indol-5-ol,4-ethylcyclohexyl carbamate ester], the IC50 in data set [7] was determined as 2600 nM.

Consider `CN1CC[C@@]2(C)c3cc(OC(=O)Nc4cccc(Cl)c4)ccc3N(C)[C@@H]12` [(3aS-cis)-1,2,3,3a,8,8a-Hexahydro-1,3a,8-trimethylpyrrolo[2,3-b]indol-5-ol,3-chlorophenyl carbamate ester], for which the values for the IC50 in data set [2], in data set [7] and in data set [6] were greater than 1 mM, 1800 nM and 600 nM, respectively. Also, the “% Inhibition, TBZ” value in data set [3] (60 mg/kg) is reported as 45%. Moreover, the “% Inhibition, YTP” value in data set [8] (mice, oral, 80 mg/kg) is listed as 63%. Besides, in data set [4], the median lethal dose (LD50) at 24 h is greater than 80 mg/kg. In data set [5], the responders at 5 mg/kg was 20%.

On to `CC(COc1ccccc1)N(CCCl)Cc1ccccc1` (stereo not shown) [phenoxybenzamine], for which, in data set [1], the “inhibition of NE uptake” value is reported as “inhibited”.

Regarding `C[C@@H]1O[C@@H](O[C@H]2C[C@@H](O)[C@]3(CO)[C@H]4[C@H](O)C[C@]5(C)[C@@H](C6=CC(=O)OC6)CC[C@]5(O)[C@@H]4CC[C@]3(O)C2)[C@H](O)[C@H](O)[C@H]1O` [ouabain], the “inhibition of NE uptake” value in data set [1] is recorded as “inhibited”.

Take `CN1CC[C@@]2(C)c3cc(OC(=O)Nc4ccncc4)ccc3N(C)[C@@H]12` [(3aS-cis)-1,2,3,3a,8,8a-Hexahydro-1,3a,8-trimethylpyrrolo[2,3-b]indol-5-ol,4-pyridinyl carbamate ester]: in data set [7], the IC50 is greater than 20000 nM. Also, in data set [4], the median lethal dose (LD50) at 24 h was roughly 40 mg/kg. In addition, in [5], the responders at 0.31 mg/kg was 27%.

Regarding `COC(=O)[C@@H]1[C@H]2C[C@H]3c4[nH]c5ccccc5c4CCN3C[C@@H]2CC[C@@H]1O` [yohimbine hydrochloride, reference compound], the “death in mice of yohimbine hydrochloride alone” value in data set [8] (30 mg/kg s.c., alone (4 out of 400 mice)) was “about 1%”.
